Tests used:
[1] = tested on: pAKT in T47D (PI3Kα H1047R mutant) cells; test: Inhibition of pAKT (alphaLISA Surefire Ultra AKT 1/2/3 pS473) in T47D cells; assay type: cell-based; settings: Homo sapiens; T47D (PI3Kα H1047R mutant) cells, 24 hr compound incubation, alphaLISA pS473; read-out: T47D (H1047R) pAKT 24 hr (IC50)
Experimental: The ability of a compound of Formula (I) to inhibit the formation of pAKT was measured using alphaLISA Surefire Ultra AKT 1/2/3 (pS473) Assay Kit (#ALSU-PAKT-B50K) was obtained from Perkin Elmer (Waltham, MA).
To prepare assay plates for pAKT alphaLISA assays, cells were trypsinized, resuspended in fresh media, and viable cells were counted utilizing trypan blue exclusion. Prior to seeding, cells were washed with PBS and resuspended in HBSS (Gibco, #14025092). T47D (12,000/w), SKBR3 (12,000/w), or MKN1 (24,000/w) cells were seeded at 12 μl per well in a solid white flat bottom 384 cell culture plate (Perkin Elmer #6007680).
Immediately after seeding, cells were dosed using an Echo Liquid Handler (Beckman Coulter) with compounds at a 10.4 μm starting concentration and serially diluted (1:4) for a total of 10 concentrations. 14 vehicle (DMSO) and 14 positive control (Alpelisib @3.125 μm) wells were included on each assay plate. Cells were incubated with the compounds (solubilized in DMSO) for approximately 24 hours at 37° C. After 24 hours of treatment, cells were lysed with 3 μl of the 5× lysis buffer (provided and incubated at room temperature for 15 min on a microtiter plate shaker). Once cells were sufficiently lysed, 7.5 μl of the acceptor bead mix (made using the manufacturers recommended dilutions) was added to each well and left on the microtiter plate shaker for 1 min prior to incubating plates at room temperature for 1 hour, in the absence of light. After 1 hour of incubation with the acceptor bead mix, 7.5 μl of the donor bead mix (made using the manufacturers recommended dilutions) was added to each well and left on the microtiter plate shaker for 1 min prior to incubating plates at room temperature overnight in the absence of light. Plates were then imaged the following day using a CLARIOstar microplate reader (BMG Labtech, Germany).
Percent of control values were calculated by subtracting the average signal from the positive control (alpelisib) treated wells from all treated wells (including DMSO control wells) and then divided by the average signal from the vehicle DMSO treated control wells. Percent of vehicle control values were plotted as log(inhibitor) vs. response—Variable slope (four parameters) for curve fitting and IC50 values were determined using XLfit.

[2] = tested on: T47D (PI3Kα H1047R mutant) cells; test: Cell viability (CellTiter-Glo 2.0) in T47D cells; assay type: cell-based; settings: Homo sapiens, T47D, 72 h, approximately 72 hours
Experimental: This Example illustrates that representative compounds of the invention decrease the viability of cells.
The ability of a compound of Formula (I) to decrease the viability of cells was measured using CellTiter-Glo 2.0 (CTG) Luminescent Cell Viability Assay (#G9241) obtained from Promega (Madison, WI).
To prepare assay plates for viability assays, cells were trypsinized, resuspended in fresh media, and viable cells were counted utilizing trypan blue exclusion. T47D, SKBR3, or MKN1 cells were seeded at 1000 cells in 30 μl per well in a solid white flat bottom 384 cell culture plate (Perkin Elmer #6007680) and incubated at 37° C. overnight.
Assay day 1, cells were dosed using an Echo Liquid Handler (Beckman Coulter) with compounds at a 10 μm starting concentration and serially diluted (1:4) for a total of 10 concentrations. Cells were incubated for approximately 72 hours with the compounds (solubilized in DMSO) at 37° C. After 72 hours of treatment, cell plates were equilibrated to room temperature before adding 15 μl of CTG to each well, plates were then covered in aluminum foil to protect from light, incubated at room temperature for 30 minutes on a microtiter plate shaker, and luminescence readings were collected using a CLARIOstar microplate reader (BMG Labtech, Germany). Percent of vehicle control values were plotted as log(inhibitor) vs. response—Variable slope (four parameters) for curve fitting and IC50 values were determined using XLfit.

Row | SMILES | IC50 [1] | IC50 [2]
1 | COC[C@@]1(F)CCN(c2nc3c([C@@H](C)Nc4ccc(Cl)nc4C(=O)O)cc(C)cc3nc2C#N)C1 (single isomer, unassigned) [Example 164] | 2.1 nM | 55 nM
2 | COC[C@]1(F)CCN(c2nc3c([C@@H](C)Nc4ccc(Cl)nc4C(=O)O)cc(C)cc3nc2C#N)C1 (single isomer, unassigned) [Example 165] | 5.6 nM | 97 nM
3 | Cc1cc([C@@H](C)Nc2ccc(Cl)nc2C(=O)O)c2nc(N3CCC(F)(F)[C@@H]3C)c(C#N)nc2c1 (single isomer, unassigned) [Example 169] | – | 108 nM
4 | Cc1cc([C@@H](C)Nc2ccc(Cl)nc2C(=O)O)c2nc(N3CCC(F)(F)[C@H]3C)c(C#N)nc2c1 (single isomer, unassigned) [Example 170] | – | 93.3 nM
5 | CO[C@H]1CN(c2nc3c([C@@H](C)Nc4ccc(Cl)nc4C(=O)O)cc(C)cc3nc2C#N)CC1(F)F (single isomer, unassigned) [Example 171] | – | 178 nM
6 | CO[C@@H]1CN(c2nc3c([C@@H](C)Nc4ccc(Cl)nc4C(=O)O)cc(C)cc3nc2C#N)CC1(F)F (single isomer, unassigned) [Example 172] | – | 170 nM
7 | COC(=O)c1nc(Cl)ccc1N[C@H](C)c1cc(C)cc2nc(C#N)c(N3CC[C@@](C)(F)C3)nc12 (single isomer, unassigned) [Example 180] | 1.6 nM | 57.8 nM
8 | COC(=O)c1nc(Cl)ccc1N[C@H](C)c1cc(C)cc2nc(C#N)c(N3CC[C@](C)(F)C3)nc12 (single isomer, unassigned) [Example 181] | 1.7 nM | 44 nM
9 | Cc1cc([C@@H](C)Nc2ccc(Cl)nc2C(=O)O)c2nc(N3CCc4cc(C#N)ccc4C3)c(C#N)nc2c1 [Example 85, (R)-6-chloro-3-((1-(2-cyano-3-(6-cyano-3,4-dihydroisoquinolin-2(1H)-yl)-7-methylquinoxalin-5-yl)ethyl)amino)picolinic acid] | 2 nM | –
10 | Cc1cc([C@@H](C)Nc2nccnc2C(=O)O)c2nc(N3CCC(F)(F)CC3)c(C#N)nc2c1 [Example 113, (R)-3-((1-(2-cyano-3-(4,4-difluoropiperidin-1-yl)-7-methylquinoxalin-5-yl)ethyl)amino)pyrazine-2-carboxylic acid] | > 10400 nM | 1170 nM
11 | Cc1cc([C@@H](C)Nc2ccc(Cl)nc2C(=O)O)c2nc(N(C)CCC(=O)N(C)C)c(C#N)nc2c1 [Example 114, (R)-6-chloro-3-((1-(2-cyano-3-((3-(dimethylamino)-3-oxopropyl)(methyl)amino)-7-methylquinoxalin-5-yl)ethyl)amino)picolinic acid] | 11 nM | 190 nM
12 | Cc1cc([C@@H](C)Nc2cccnc2C(=O)O)c2nc(N3CCC(F)(F)CC3)c(C#N)nc2c1 [Example 118, (R)-3-((1-(2-cyano-3-(4,4-difluoropiperidin-1-yl)-7-methylquinoxalin-5-yl)ethyl)amino)picolinic acid] | – | 383 nM
13 | CCOCC1CCN(c2nc3c([C@@H](C)Nc4ccc(Cl)nc4C(=O)O)cc(C)cc3nc2C#N)CC1 [Example 119, (R)-6-chloro-3-((1-(2-cyano-3-(4-(ethoxymethyl)piperidin-1-yl)-7-methylquinoxalin-5-yl)ethyl)amino)picolinic acid] | – | 59.9 nM
14 | Cc1cc([C@@H](C)Nc2cscc2C(=O)O)c2nc(N3CCC(F)(F)CC3)c(C#N)nc2c1 [Example 121, (R)-4-((1-(2-cyano-3-(4,4-difluoropiperidin-1-yl)-7-methylquinoxalin-5-yl)ethyl)amino)thiophene-3-carboxylic acid] | – | 651 nM
15 | Cc1cc([C@@H](C)Nc2ccc(Cl)nc2C(=O)O)c2nc(N3CC4(CCO4)C3)c(C#N)nc2c1 [Example 130, (R)-6-chloro-3-((1-(2-cyano-7-methyl-3-(1-oxa-6-azaspiro[3.3]heptan-6-yl)quinoxalin-5-yl)ethyl)amino)picolinic acid] | – | 65.6 nM
16 | Cc1cc([C@@H](C)Nc2ccc(Cl)nc2C(=O)O)c2nc(N3CC(C(F)(F)F)C3)c(C#N)nc2c1 [Example 131, (R)-6-chloro-3-((1-(2-cyano-7-methyl-3-(3-(trifluoromethyl)azetidin-1-yl)quinoxalin-5-yl)ethyl)amino)picolinic acid] | 2.2 nM | –
17 | COCCNc1nc2c([C@@H](C)Nc3ccc(Cl)nc3C(=O)O)cc(C)cc2nc1C#N [Example 132, (R)-6-chloro-3-((1-(2-cyano-3-((2-methoxyethyl)amino)-7-methylquinoxalin-5-yl)ethyl)amino)picolinic acid] | 0.9 nM | –
18 | Cc1cc([C@@H](C)Nc2ccc(Cl)nc2C(=O)O)c2nc(N3CCN(c4ccc(C(F)(F)F)nc4)CC3)c(C#N)nc2c1 [Example 133, (R)-6-chloro-3-((1-(2-cyano-7-methyl-3-(4-(6-(trifluoromethyl)pyridin-3-yl)piperazin-1-yl)quinoxalin-5-yl)ethyl)amino)picolinic acid] | 0.8 nM | –
19 | Cc1cc([C@@H](C)Nc2ccccc2C(=O)O)c2nc(N3CC4(CCO4)C3)c(C#N)nc2c1 [Example 134, (R)-2-((1-(2-cyano-7-methyl-3-(1-oxa-6-azaspiro[3.3]heptan-6-yl)quinoxalin-5-yl)ethyl)amino)benzoic acid] | 10.9 nM | –
20 | Cc1cc([C@@H](C)Nc2ccc(Cl)nc2C(=O)O)c2nc(NCC3COC3)c(C#N)nc2c1 [Example 135, (R)-6-chloro-3-((1-(2-cyano-7-methyl-3-((oxetan-3-ylmethyl)amino)quinoxalin-5-yl)ethyl)amino)picolinic acid] | 19.2 nM | –
21 | Cc1cc([C@@H](C)Nc2ccc(Cl)nc2C(=O)O)c2nc(N3CCC(n4cccn4)CC3)c(C#N)nc2c1 [Example 136, (R)-3-((1-(3-(4-(1H-pyrazol-1-yl)piperidin-1-yl)-2-cyano-7-methylquinoxalin-5-yl)ethyl)amino)-6-chloropicolinic acid] | 0.7 nM | –
22 | CC(=O)N(C)C1CCN(c2nc3c([C@@H](C)Nc4ccc(Cl)nc4C(=O)O)cc(C)cc3nc2C#N)CC1 [Example 137, (R)-6-chloro-3-((1-(2-cyano-7-methyl-3-(4-(N-methylacetamido)piperidin-1-yl)quinoxalin-5-yl)ethyl)amino)picolinic acid] | 1.3 nM | –
23 | Cc1cc([C@@H](C)Nc2ccc(Cl)nc2C(=O)O)c2nc(N3CCC(n4cc(C)cn4)CC3)c(C#N)nc2c1 [Example 138, (R)-6-chloro-3-((1-(2-cyano-7-methyl-3-(4-(4-methyl-1H-pyrazol-1-yl)piperidin-1-yl)quinoxalin-5-yl)ethyl)amino)picolinic acid] | 0.8 nM | –
24 | Cc1cc([C@@H](C)Nc2ccc(Cl)nc2C(=O)O)c2nc(N3CCC(n4cc(C(F)(F)F)cn4)CC3)c(C#N)nc2c1 [Example 139, (R)-6-chloro-3-((1-(2-cyano-7-methyl-3-(4-(4-(trifluoromethyl)-1H-pyrazol-1-yl)piperidin-1-yl)quinoxalin-5-yl)ethyl)amino)picolinic acid] | 2.1 nM | –
25 | Cc1cc([C@@H](C)Nc2ccc(Cl)nc2C(=O)O)c2nc(N3CCO[C@H](C)C3)c(C#N)nc2c1 [Example 168, 6-chloro-3-(((R)-1-(2-cyano-7-methyl-3-((R)-2-methylmorpholino)quinoxalin-5-yl)ethyl)amino)picolinic acid] | – | 45.8 nM
26 | Cc1cc([C@@H](C)Nc2ccc(Cl)nc2C(=O)O)c2nc(N3CC[C@H](S(C)(=O)=O)C3)c(C#N)nc2c1 [Example 175, 6-chloro-3-(((R)-1-(2-cyano-7-methyl-3-((S)-3-(methylsulfonyl)pyrrolidin-1-yl)quinoxalin-5-yl)ethyl)amino)picolinic acid] | – | 344 nM
